For orientation: inhibition means the drop in the measured response relative to a control, in per cent.

We go through 16 molecules from patent US9963463B2, “Urea-substituted indanes as P38 map kinase inhibitors” (TORRENT PHARMACEUTICALS LIMITED, priority 2014, dated 2018).

Molecules are shown by their SMILES. A value given as a limit tells only on which side of the number the result lay.

This assay deals with T1, purified recombinant human p38 alpha MAPK (Homo sapiens, UniProt Q16539).
T1 construct: purchased Millipore, USA
T1 sequence (Q16539 whole entry): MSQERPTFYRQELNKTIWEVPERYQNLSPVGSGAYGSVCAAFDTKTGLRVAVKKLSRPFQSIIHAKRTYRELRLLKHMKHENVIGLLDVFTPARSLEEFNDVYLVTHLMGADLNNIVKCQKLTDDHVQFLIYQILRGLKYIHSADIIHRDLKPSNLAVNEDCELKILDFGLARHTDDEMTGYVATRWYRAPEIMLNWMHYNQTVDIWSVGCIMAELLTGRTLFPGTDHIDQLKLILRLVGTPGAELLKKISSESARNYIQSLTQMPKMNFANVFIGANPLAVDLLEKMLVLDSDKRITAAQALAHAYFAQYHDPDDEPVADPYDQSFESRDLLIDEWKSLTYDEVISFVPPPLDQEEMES
The assay can be described thus: Inhibition of p38 alpha MAPK activity, TR-FRET kinase assay. The format is biochemical. The note with it: read-out: P38α Inhibition; for inhibition at 1 µM: Concentration 1 μM. The essentials: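 Recombinant human p38α preincubated 15 min at RT with compound (0.5–1.0% DMSO), then 30 nM biotinylated GST-ATF2 and 100 μM ATP added for 60 min at RT. Stopped with EDTA; Eu-anti-phospho-ATF2 and APC-streptavidin detection, 60 min. % inhibition from 665/615 nm TR-FRET ratio.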
Background: In TR-FRET formats the signal depends on donor and acceptor labels being close together.

For the molecule `CCOC(=O)c1c(NC(=O)C2CC2)sc2c1CCN(C(=O)COc1ccc(NC(=O)Nc3cc(C(C)(C)C)nn3-c3ccc(C)cc3)c3c1CCC3)C2` [Compound 54, ethyl 6-({[7-({[3-tert-butyl-1-(4-methylphenyl)-1H-pyrazol-5-yl]carbamoyl}amino)-2,3-dihydro-1H-inden-4-yl]oxy}acetyl)-2-[(cyclopropylcarbonyl)amino]-4,5,6,7-tetrahydrothieno[2,3-c]pyridine-3-carboxylate], the inhibition at 1 µM is < 20%.
Same read-out and setting: with `CC(=O)Nc1cc2c(s1)CCN(C(=O)COc1ccc(NC(=O)Nc3cc(C(C)(C)C)nn3-c3ccc(C4CCCCC4)cc3)c3c1CCC3)C2` [Compound 55, N-[5-({[7-({[3-tert-butyl-1-(4-cyclohexylphenyl)-1H-pyrazol-5-yl]carbamoyl}amino)-2,3-dihydro-1H-inden-4-yl]oxy}acetyl)-4,5,6,7-tetrahydrothieno[3,2-c]pyridin-2-yl]acetamide] the figure was < 20%.
The same measure, in the same setting: with `Cc1ccc(-n2nc(C(C)(C)C)cc2NC(=O)Nc2ccc(OCC(=O)N3CCn4c(nnc4C(F)(F)F)C3)c3c2CCC3)cc1Cl` [Compound 56, 1-[3-tert-butyl-1-(3-chloro-4-methylphenyl)-1H-pyrazol-5-yl]-3-(7-{2-oxo-2-[3-(trifluoromethyl)-5,6-dihydro[1,2,4]triazolo[4,3-a]pyrazin-7(8H)-yl]ethoxy}-2,3-dihydro-1H-inden-4-yl)urea] the figure was 40 to 60%; with `Cc1ccc(-n2nc(C(C)(C)C)cc2NC(=O)Nc2ccc(OCC(=O)N3CCn4c(nnc4-c4ccccc4)C3)c3c2CCC3)cc1` [Compound 57, 1-[3-tert-butyl-1-(4-methylphenyl)-1H-pyrazol-5-yl]-3-{7-[2-oxo-2-(3-phenyl-5,6-dihydro[1,2,4]triazolo[4,3-a]pyrazin-7(8H)-yl)ethoxy]-2,3-dihydro-1H-inden-4-yl}urea], 60 to 80%; with `COc1ccc(-c2nnc3n2CCN(C(=O)COc2ccc(NC(=O)Nc4cc(C(C)(C)C)nn4-c4ccccc4)c4c2CCC4)C3)cc1Cl` [Compound 58, 1-(3-tert-butyl-1-phenyl-1H-pyrazol-5-yl)-3-(7-{2-[3-(3-chloro-4-methoxyphenyl)-5,6-dihydro[1,2,4]triazolo[4,3-a]pyrazin-7(8H)-yl]-2-oxoethoxy}-2,3-dihydro-1H-inden-4-yl)urea], 40 to 60%.
On the same count and under the same terms, under `CCCN1CCN(CCOc2ccc(NC(=O)Nc3cc(C(C)(C)C)nn3-c3ccc(C)cc3)c3c2CCC3)CC1=O` [Compound 59, 1-[3-tert-butyl-1-(4-methylphenyl)-1H-pyrazol-5-yl]-3-{7-[2-(3-oxo-4-propylpiperazin-1-yl)ethoxy]-2,3-dihydro-1H-inden-4-yl}urea] stands 60 to 80%; under `CC(C)(C)c1cc(NC(=O)Nc2ccc(OCCN3CCN(CC4CC4)C(=O)C3)c3c2CCC3)n(-c2ccc(F)cc2)n1` [Compound 60, 1-[3-tert-butyl-1-(4-fluorophenyl)-1H-pyrazol-5-yl]-3-(7-{2-[4-(cyclopropylmethyl)-3-oxopiperazin-1-yl]ethoxy}-2,3-dihydro-1H-inden-4-yl)urea], 60 to 80%; under `CC(C)(C)c1cc(NC(=O)Nc2ccc(OCCN3CCN(CC4CC4)C(=O)C3)c3c2CCC3)n(-c2ccccc2)n1` [Compound 61, 1-(3-tert-butyl-1-phenyl-1H-pyrazol-5-yl)-3-(7-{2-[4-(cyclopropylmethyl)-3-oxopiperazin-1-yl]ethoxy}-2,3-dihydro-1H-inden-4-yl)urea], 60 to 80%.
On to `Cc1ccccc1-n1nc(C(C)(C)C)cc1NC(=O)Nc1ccc(OCCN2CCN(CC3CC3)C(=O)C2)c2c1CCC2` [Compound 62, 1-[3-tert-butyl-1-(2-methylphenyl)-1H-pyrazol-5-yl]-3-(7-{2-[4-(cyclopropylmethyl)-3-oxopiperazin-1-yl]ethoxy}-2,3-dihydro-1H-inden-4-yl)urea], for which the inhibition at 1 µM is 40 to 60%.
As to `CC(C)(C)c1cc(NC(=O)Nc2ccc(OCCN3CCn4c(nnc4-c4ccc(O)cc4O)C3)c3c2CCC3)n(-c2ccc(O)c(Cl)c2)n1` [Compound 63, 1-[3-tert-butyl-1-(3-chloro-4-hydroxyphenyl)-1H-pyrazol-5-yl]-3-(7-{2-[3-(2,4-dihydroxyphenyl)-5,6-dihydro[1,2,4]triazolo[4,3-a]pyrazin-7(8H)-yl]ethoxy}-2,3-dihydro-1H-inden-4-yl)urea], the inhibition at 0.1 µM (Concentration 100 nM) was in the range of 60 to 80%.
Turning to `COc1c(NC(=O)Nc2ccc(OCCN3CCN(CC4CC4)C(=O)C3)c3c2CCC3)cc(C(C)(C)C)cc1NC(=O)C1CC1` [Compound 64, N-(5-tert-butyl-3-{[(7-{2-[4-(cyclopropylmethyl)-3-oxopiperazin-1-yl]ethoxy}-2,3-dihydro-1H-inden-4-yl)carbamoyl]amino}-2-methoxyphenyl)cyclopropanecarboxamide], the inhibition at 1 µM was in the range of 20 to 40%.
The same measure, in the same setting: with `CC(C)(C)c1cc(NC(=O)Nc2ccc(OCCN3CCn4c(nnc4C4CCCCC4)C3)c3c2CCC3)n(-c2ccc(O)c(Cl)c2)n1` [Compound 65, 1-[3-tert-butyl-1-(3-chloro-4-hydroxyphenyl)-1H-pyrazol-5-yl]-3-{7-[2-(3-cyclohexyl-5,6-dihydro[1,2,4]triazolo[4,3-a]pyrazin-7(8H)-yl)ethoxy]-2,3-dihydro-1H-inden-4-yl}urea] the figure was 20 to 40%; with `Cc1ccc(-n2nc(C(C)(C)C)cc2NC(=O)Nc2cc(C)c(OCCN3CCn4c(nnc4-c4cc(Cl)ccc4O)C3)c3c2CCC3)cc1` [Compound 66, 1-[3-tert-butyl-1-(4-methylphenyl)-1H-pyrazol-5-yl]-3-(7-{2-[3-(5-chloro-2-hydroxyphenyl)-5,6-dihydro[1,2,4]triazolo[4,3-a]pyrazin-7(8H)-yl]ethoxy}-6-methyl-2,3-dihydro-1H-inden-4-yl)urea], < 20%; with `Cc1ccc(-n2nc(C(C)(C)C)cc2NC(=O)Nc2ccc(OCCN3CCn4c(nnc4-c4cccc5ccccc45)C3)c3c2CCC3)cc1` [Compound 67, 1-[3-tert-butyl-1-(4-methylphenyl)-1H-pyrazol-5-yl]-3-(7-{2-[3-(naphthalen-1-yl)-5,6-dihydro[1,2,4]triazolo[4,3-a]pyrazin-7(8H)-yl]ethoxy}-2,3-dihydro-1H-inden-4-yl)urea], 60 to 80%.
Still for that read-out and setting: with `Cc1ccc(-n2nc(C(C)(C)C)cc2NC(=O)Nc2ccc(OCCN3CCn4c(nnc4C4CCCCC4)C3)c3c2CCC3)cc1` [Compound 68, 1-[3-tert-butyl-1-(4-methylphenyl)-1H-pyrazol-5-yl]-3-{7-[2-(3-cyclohexyl-5,6-dihydro[1,2,4]triazolo[4,3-a]pyrazin-7(8H)-yl)ethoxy]-2,3-dihydro-1H-inden-4-yl}urea] the figure was 40 to 60%.
Regarding `Cc1ccc(-n2nc(C(C)(C)C)cc2NC(=O)Nc2ccc(OCCN3CCn4c(nnc4-c4oc5ccccc5c4C)C3)c3c2CCC3)cc1` [Compound 69, 1-[3-tert-butyl-1-(4-methylphenyl)-1H-pyrazol-5-yl]-3-(7-{2-[3-(3-methyl-1-benzofuran-2-yl)-5,6-dihydro[1,2,4]triazolo[4,3-a]pyrazin-7(8H)-yl]ethoxy}-2,3-dihydro-1H-inden-4-yl)urea], the inhibition at 1 µM lay within 40 to 60%.
